Converted amounts (≈) assume the structure as drawn.
What was measured:
[1] = tested on: panel of six strains Helicobacter pylori; test: MIC determination against Helicobacter pylori (agar dilution); details: read-out: MICs against Helicobacter pylori
[2] = tested on: Staphylococcus aureus ATCC33591(resistant to methicillin); test: MIC determination in broth microdilution assay; details: B: Staphylococcus aureus ATCC33591(resistant to methicillin)
[3] = Determination of metabolic stability (liver microsomes); type: in vitro ADME; details: rat liver microsomes, 20 μM, 15 min
Protocol: Determination of Metabolic Stability
Incubations were performed with Wistar rat liver microsomes (0.25 mg/ml) in 2% sodium bicarbonate solution. NADP (0.13 mg/ml), glucose-6-phosphate (0.63 mg/ml) and glucose-6-phosphate dehydrogenase (0.38 units/ml) were used as NADPH generation system and UDPGA (0.48 mg/ml) was added to include the phase II reaction, glucuronic acid conjugation, in the assay. After 5 minutes of pre-incubation the reaction was started by addition of the test article to give a final concentration of 20 μM. Samples were incubated for 15 min at 37° C. and the reactions were terminated by addition of equal volumes of acetonitrile. Blank incubations were performed at the same concentration but without addition of microsomes. Both blank and microsome-containing samples were made in replicats of three. Prior to analysis samples were centrifuged for 10 min. at 3500 rpm,HPLC system:
Initial conditions were 40% mobile phase A (acetonitrile) and 60% mobile phase B (10 mM ammonium acetate pH 9.5). During the first 20 minutes, the mobile phase was changed via a linear gradient to 90% A and 10% B. This was followed by a 5 minutes linear gradient to initial conditions, which were maintained for 5 min. The flow rate was 0.20 m)/min and injection volume 10 μl.

[4] = tested on: Staphylococcus aureus ATCC29213; test: MIC determination in broth microdilution assay; details: A: Staphylococcus aureus ATCC29213
[5] = tested on: Enterococcus faecium #17501 (vancomycin-resistant clinical isolate); test: MIC determination in broth microdilution assay; details: E: Enterococcus faecium #17501 (vancomycin-resistant)
[6] = tested on: Streptococcus pneumoniae #998 (clinical isolate); test: MIC determination in broth microdilution assay; details: F: Streptococcus pneumoniae #998
[7] = Pharmacokinetic studies; type: in vivo, mice; details: for bioavailability: in mice
Protocol: Samples of serum were taken at defined timepoints.
The supernatant was used for the analysis.
The flow rate was […], injection volume 10 μl.

[8] = tested on: parasitic or bacterial infections; test: In vivo potency of chalcones
[9] = tested on: Eschericia coli ESS; test: MIC determination in broth microdilution assay; details: for MIC: H: Eschericia coli ESS
[10] = tested on: Enterococcus faecalis ATCC29212; test: MIC determination in broth microdilution assay; details: D: Enterococcus faecalis ATCC29212
[11] = Determination of solubility; type: physicochemical; details: reference chalcones
Protocol: Determination of Solubility
Solubility of the compounds was determined by preparing a saturated solution of compound in 0.3 M phosphate buffer (pH 7.4±0.3) in a brown glass tube. The suspensions were rotated slowly for 24 hours. Aliquots were centrifuged for 10 minutes at 14.000 rpm and supernatants were diluted in 40% (v/v) acetonitrile in water prior to HPLC analysis. Concentrations of analytes were quantified against a standard curve and used as term of solubility. The HPLC-UV method used for the assessment of solubility is the same as used in the in vitro metabolism assay.

[12] = tested on: panel of 10 different non-fastidious bacteria; test: Screening against panel of non-fastidious bacteria
[13] = tested on: P.yoelii and P.berghei; details: cited from earlier work
[14] = tested on: cutaneous and visceral Leishmania infection; details: cited from earlier work
[15] = tested on: dihydroorotate dehydrogenase (DHODH); test: DHODH assay; type: biochemical; details: at 10 μM
Protocol: 100 μl chalcone or 0.1 M Tris-HCl pH 8.0 is added to a well in a 96-wells microtiter plate. Then 50 μl enzyme dilution is added. The microtiter plate is placed in the Powerwavex340 and the enzymatic reactions starts when adding 100 μl assay mixture. The reaction are measured every 20 sec. for 10 min. The samples with chalcones are compared with the samples with 0.1 M Tris-HCl pH 8.0 and the percent inhibition is calculated.
Enzyme dilution: The solution of recombinant purified enzyme is dissolved in 0.1 M Tris-HCl pH 8 to give an initial velocity of 0.04-0.05 ΔA/min.
2,6-dichlorophenolindophenol (DCIP)-stock solution: 40 mg DCIP and 10 ml 99% Ethanol are mixed for 10 min at RT. Then 100 μl 1.0 M Tris-HCl pH 8 and miliQ H2O are added to a final volume of 100 ml. The A600 of the DCIP-stock solution are measured in a microtiter plate on the Powerwavex340 (Bio-Tek instruments,Inc.)
[…]: 25 mM dihydroorotate stock-solution is prepared by first dissolving in the same amount of mol NaOH and then miliQ H2O is added to the final volume.
Assay mix (10 ml solution): 600 μl of DHODH-stock solution and X ml (depending on the A600 value of stock-solution) DCIP to a final A600=2.5 are mixed. Then 0.1 M Tris-HCl pH 8.0 are added to a final volume of 10 ml.
Preparation of compound soluton: A 10 mM stock-solution of compound (e.g. a chalcone derivative) is made in dimethylsulfoxid (DMSO). The compound is then diluted in 0.1 M Tris-HCl pH 8 to the test concentrations. The final DMSO concentration in the sample is 10%

[16] = tested on: Plasmodium berghei K173; details: NMRI female mice; for effect on development of the infection: multiple oral administrations, FIG. 7
[17] = tested on: S.aureus ATCC33591; details: time-kill curve FIG. 2, S.aureus ATCC33591
[18] = tested on: Eschericia coli ATCC25922; test: MIC determination in broth microdilution assay
[19] = tested on: Bacteroides fragilis, Clostridium perfringens, Clostridium difficele; type: cell-based; details: single concentration of compound (100 μM)
[20] = tested on: S.aureus ATCC29213; details: time-kill curve FIG. 3, S.aureus ATCC29213
[21] = tested on: Plasmodium falciparum 3D7; test: Plasmodium falciparum assay; type: cell-based; details: Plasmodium falciparum 3D7 (Table 2); read-out: IC50

Work on `CC(=O)Nc1cccc(C(=O)/C=C/c2cc(-c3cc(C)cc(C)c3)ccc2OCCN(C)C)c1` [Compound C088, N-(3-{3-[4-(2-Dimethylamino-ethoxy)-3′,5′-dimethyl-biphenyl-3-yl]-(E)-acryloyl}-phenyl)-acetamide] yielded an MIC [1] of 12 to 25 µM (≈ 5.48 to 11.4 µg/mL).
With `C=CC(C)(C)c1cc(/C=C/C(=O)c2ccc(O)cc2)c(OC)cc1O` [LicA, Licochalcone A] the MIC [2] was 37.5 µM (≈ 12.7 µg/mL), the “Metabolic turn-over in vitro” value [3] was 100% and the “Metabolic turn-over in vitro” value ([3]; listed as Lica) was 100%. For the same molecule, the MIC [4] was 37.5 µM (≈ 12.7 µg/mL), the MIC [5] was 37.5 µM (≈ 12.7 µg/mL) and the MIC [6] was 75.0 µM (≈ 25.4 µg/mL). For the same molecule, the bioavailability [7] was under 6%, the t1/2 in vivo ([7]; in vivo) was 10 min and the in vivo potency [8] was 50 mg/kg. For the same molecule, the MIC [9] was 300.0 µM (≈ 102 µg/mL), the MIC [10] was 37.5 µM (≈ 12.7 µg/mL) and the aqueous solubility [11] was “approximately 0.01 mg/ml”. The “bactericidal activity against common pathogenic Gram-positive non-fastidious bacteria” value ([12]; Gram-positive bacteria) was “moderate bactericidal activity”, the “activity against Eschericia coli” value ([12]; prototype pathogenic Gram-negative bacterium) was “modest or no activity” and the “protection of mice from infection” value [13] was “protects mice from infection with P.yoelii and P.berghei”. The “efficacy in experimental animal models” value [14] was “efficacy in experimental animal models of cutaneous and visceral Leishmania infection” and the “Inhibition of DHODH” value [15] was 25%.
For `COc1ccc(C(=O)/C=C/c2cc(-c3ccccc3C)ccc2OCCN(C)C)c(CN(C)C)c1` [Compound C114, (E)-3-[4-(2-Dimethylamino-ethoxy)-2′-methyl-biphenyl-3-yl]-1-(2-imethylaminomethyl-4-methoxy-phenyl)-propenone], the “effect on development of the infection” value [16] was “inhibit the development of the infection”.
Molecule `COc1ccc(C(=O)/C=C/c2cc(-c3cc(C)cc(C)c3)ccc2OCCN(C)C)cc1` [Compound C023, (E)-3-[4-(2′-Dimethylamino-ethoxy)-3′,5′-dimethyl-biphenyl-3-yl]-1-(4-methoxy-phenyl)-propenone] has an MIC [2] of 4.7 µM (≈ 2.02 µg/mL), an MIC [4] of 4.7 µM (≈ 2.02 µg/mL) and an MIC [5] of 4.7 µM (≈ 2.02 µg/mL). The MIC [6] was 18.8 µM (≈ 8.08 µg/mL), the MIC [9] was 9.4 µM (≈ 4.04 µg/mL) and the MIC [10] was 4.7 µM (≈ 2.02 µg/mL). The “potency against Gram-positive pathogens in comparison with Licochalcone A” value [12] was “increased potency”, the MIC [17] was 9.4 µM (≈ 4.04 µg/mL) and the “bactericidal action (CFU counts per ml above the MIC)” value [17] was “bactericidal”.
For `Cc1cc(C)cc(-c2ccc(OCCN(C)C)c(/C=C/C(=O)c3ccccc3NCCN(C)C)c2)c1` [Compound C074, (E)-3-[4-(2-Dimethylamino-ethoxy)-3′,5′-dimethyl-biphenyl-3-yl]-1-[2-(2-dimethylamino-ethylamino)-phenyl]-propenone], the MIC [2] was 9.4 µM (≈ 4.57 µg/mL), the “Metabolic turn-over in vitro” value [3] was 7% and the MIC [4] was 9.4 µM (≈ 4.57 µg/mL). The MIC [5] was 9.4 µM (≈ 4.57 µg/mL), the “activity against ESS strain of E.coli” value [9] was “high activity” and the MIC [9] was 4.7 µM (≈ 2.28 µg/mL). For the same molecule, the “activity against E coli ATCC25922” value [18] was “high activity”, the MIC ([18]; G: Eschericia coli ATCC25922) was 9.4 µM (≈ 4.57 µg/mL) and the MIC [10] was 9.4 µM (≈ 4.57 µg/mL). For the same molecule, the “activity against anaerobic bacteria” value [19] was “activity against all microorganisms within the test panel”.
With `CN(C)CCOc1ccc(-c2ccccc2Cl)cc1/C=C/C(=O)c1ccccc1CN(C)C` [Compound C128, (E)-3-[2′-Chloro-4-(2-dimethylamino-ethoxy)-biphenyl-3-yl]-1-(2-dimethylaminomethyl-phenyl)-propenone] the “effect on development of the infection” value [16] was “inhibit the development of the infection”.
For `COc1ccc(C(=O)/C=C/c2cc(C(C)(C)C)cc(C(C)(C)C)c2OCCN(C)C)c(F)c1` [Compound C028, (E)-3-[3,5-Di-tert-butyl-2-(2-dimethylamino-ethoxy)-phenyl]-1-(2-fluoro-4-methoxy-phenyl)-propenone], the “activity against anaerobic bacteria” value [19] was “activity against all microorganisms within the test panel” and the “Inhibition of DHODH” value [15] was 23%.
For `CCN(CC)Cc1ccccc1C(=O)/C=C/c1cc(-c2cc(C)cc(C)c2)ccc1OCCN(C)C` [Compound C030, (E)-1-(2-Diethylaminomethyl-phenyl)-3-[4-(2-dimethylamino-ethoxy)-3′,5′-dimethyl-biphenyl-3-yl]-propenone], the MIC [20] was 18.8 µM (≈ 9.11 µg/mL), the “bactericidal action (CFU counts per ml above the MIC)” value [20] was “bactericidal” and the “potency against Gram-positive pathogens in comparison with Licochalcone A” value [12] was “increased potency”.
In the case of `Cc1ccccc1-c1ccc(OCCN(C)C)c(/C=C/C(=O)c2ccccc2CN2CCCC2)c1` [Compound C119, (E)-3-[4-(2-Dimethylamino-ethoxy)-2′-methyl-biphenyl-3-yl]-1-(2-pyrrolidin-1-ylmethyl-phenyl)-propenone], the “effect on development of the infection” value [16] is reported as “inhibit the development of the infection”.
With `Cc1ccccc1-c1ccc(OCCN(C)C)c(/C=C/C(=O)c2ccccc2CN(C)C)c1` [Compound C035, (E)-3-[4-(2-Dimethylamino-ethoxy)-2′-methyl-biphenyl-3-yl]-1-(2-dimethylaminomethyl-phenyl)-propenone] the effect on parasitaemia ([16]; multiple intra venous administrations, FIG. 6) was “significant decrease in the parasitaemia” and the IC50 [21] was 100 nM.
`COc1ccc(C(=O)/C=C/c2cccc(OCCN(C)C)c2)c(OC)c1OC` [Compound C043, (E)-3-[3-(2-Dimethylamino-ethoxy)-phenyl]-1-(2,3,4-trimethoxy-phenyl)-propenone] gave a bioavailability [7] of 42%.
With `COc1ccc(C(=O)/C=C/c2cc(-c3cc(C)cc(C)c3)ccc2OCCN(C)C)c(Cl)c1` [Compound C026, (E)-1-(2-Chloro-4-methoxy-phenyl)-3-[4-(2-dimethylamino-ethoxy)-3′,5′-dimethyl-biphenyl-3-yl]-propenone] the “activity against anaerobic bacteria” value [19] was “activity against all microorganisms within the test panel” and the “Inhibition of DHODH” value [15] was 19%.
